This passage reports IC50 results from patent US20230322785A1, “ADENOSINE A2A AND A2B RECEPTOR DUAL ANTAGONISTS FOR IMMUNO-ONCOLOGY” (Merck Sharp & Dohme LLC, priority 2020, published 2023).

In general, IC50 refers to the concentration that gives 50% inhibition. Read a high IC50 as weaker potency.

The target of this assay is T1, human A2A adenosine receptor (Homo sapiens, UniProt P29274).
T1 construct: expressed in transfected cells; host or cells: HEK293 or CHO cells
Kind of assay: A2A binding affinity, Method (A): radioligand filtration binding with [3H]SCH58261. The note with it: membranes of HEK293 or CHO cells expressing the human receptor. An excerpt:
Method (A) describes the procedure used to measure A2A binding affinity using radioligand binding. Method (B) describes the procedure used to measure A2A binding affinity using SPA technology. The method used to measure A2B binding affinity is also described below. The method used to determine the A2A IC50 value reported for each compound in the table is indicated next to the reported value. The A2B IC50 value measured using the A2B binding affinity assay is shown in the table next to the compound under the corresponding A2A value.
The A2A receptor affinity binding assay measured the amount of binding of a tritiated ligand with high affinity for the A2A adenosine receptor to membranes made from HEK293 or CHO cells recombinantly expressing the human A2A adenosine receptor, in the presence of varying concentrations of a compound of the invention. The data were generated using either filtration binding or a homogenous scintillation proximity assay (SPA).
Method (A): Measurement of A2A Binding Affinity Using Radioligand Binding
148 µL (5 µg/mL) membranes (Perkin Elmer, Cat. No. RBHA2aM400UA) and 2 µL compounds of the invention to be tested (test compound) were transferred to individual wells of a 96-well polypropylene assay plate and incubated for 15 to 30 min at room temperature. [^3H] SCH58261 ((7-(2-phenylethyl)-5-amino-2-(2-furyl)-pyrazolo-[4,3-e]-1,2,4-triazolo[1,5-c]pyrimidine)) was diluted in assay buffer (50 mM Tris pH 7.4, 10 mM MgCl2, 0.005% Tween20) to a concentration of 4 nM and 50 µL transferred to each well of the assay plate. To define total and non-specific binding, wells containing 1% DMSO and 1 µM ZM241385 (Tocris Bioscience, Cat. No. 1036) respectively, were also included. The assay plate was incubated at room temperature for 60 min with agitation. Using a FilterMate Harvester® (Perkin Elmer), the contents of the assay plate were filtered through a UniFilter-96® PEI coated plate (Perkin Elmer Cat. No. 6005274 or 6005277). Filtering was achieved by aspirating the contents of the assay plate for 5 sec, then washing and aspirating the contents three times with ice-cooled wash buffer (50 mM Tris-HCl pH 7.4, 150 mM NaCl) and allowing the vacuum manifold to dry the plate for 30 sec. The filter plate was incubated for at least 1 h at 55° C. and allowed to dry. The bottom of the filter plate was sealed with backing tape. 40 µL Ultima Gold™ (Perkin Elmer, Cat. No. 6013329) was added to each well of the filter plate and the top of the plate was sealed with TopSeal-A PLUS® clear plate seal (Perkin Elmer, Cat. No. 6050185). The plate was incubated for at least 20 min, and then the amount of radioactivity remaining in each well was determined using a TopCount® (Perkin Elmer) scintillation counter. After normalization to total and non-specific binding, the percent effect at each compound concentration was calculated. The plot of percent effect versus the log of compound concentration was analyzed electronically using a 4-parameter logistic fit based on the Levenberg-Marquardt algorithm to generate IC50 values.

T1 sequence (P29274 whole entry): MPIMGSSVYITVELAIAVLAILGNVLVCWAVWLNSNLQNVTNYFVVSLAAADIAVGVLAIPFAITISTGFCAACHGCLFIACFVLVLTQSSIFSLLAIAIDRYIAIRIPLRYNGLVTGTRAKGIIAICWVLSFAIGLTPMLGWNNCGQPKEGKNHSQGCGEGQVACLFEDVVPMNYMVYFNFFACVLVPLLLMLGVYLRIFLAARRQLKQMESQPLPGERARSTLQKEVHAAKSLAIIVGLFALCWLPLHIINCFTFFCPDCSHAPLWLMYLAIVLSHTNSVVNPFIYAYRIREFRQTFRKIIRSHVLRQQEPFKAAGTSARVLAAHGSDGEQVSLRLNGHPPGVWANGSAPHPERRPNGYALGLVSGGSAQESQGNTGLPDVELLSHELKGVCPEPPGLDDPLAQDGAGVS

In turn, `COc1cccc2c1nc(N)n1nc(CNCc3ccc(S(N)(=O)=O)cc3)nc21` [Example 11.10, 4-((((5-amino-7-methoxy-[1,2,4]triazolo[1,5-c]quinazolin-2-yl)methyl)amino)methyl)benzenesulfonamide] yielded an IC50 of 1.4 nM.
On to `COc1cccc2c1nc(N)n1nc(CNC(=O)c3ccc(C(C)(O)C(F)(F)F)cc3)nc21` (single isomer, unassigned) [Example 2.7B, (R or S)-N-((5-amino-7-methoxy-[1,2,4]triazolo[1,5-c]quinazolin-2-yl)methyl)-4-(1,1,1-trifluoro-2-hydroxypropan-2-yl)benzamide], for which the IC50 was 0.5 nM. This IC50 lies about 2.8-fold lower than the previous one.
`COc1cccc2c1nc(N)n1nc(CNC3CCc4c(nnn4C4CC(F)(F)C4)C3)nc21` (single isomer, unassigned) [Example 11.2B, (R or S)-2-(((1-(3,3-difluorocyclobutyl)-4,5,6,7-tetrahydro-1H-benzo[d][1,2,3]triazol-5-yl)amino)methyl)-7-methoxy-[1,2,4]triazolo[1,5-c]quinazolin-5-amine] had an IC50 of 3.4 nM.
The compound `COc1cc(F)cc2c1nc(N)n1nc(CNC(=O)c3c(F)cc(C(C)(C)O)cc3F)nc21` [Example 3.4, N-((5-amino-9-fluoro-7-methoxy-[1,2,4]triazolo[1,5-c]quinazolin-2-yl)methyl)-2,6-difluoro-4-(2-hydroxypropan-2-yl)benzamide] registered an IC50 of 11.1 nM. This IC50 is about 3.3-fold higher than that of the compound before.
`COc1cc2nc(N)n3nc(CCNc4cnn(CC(C)(C)O)c4)nc3c2cc1F` [Example 24.2, 1-(4-((2-(5-amino-9-fluoro-8-methoxy-[1,2,4]triazolo[1,5-c]quinazolin-2-yl)ethyl)amino)-1H-pyrazol-1-yl)-2-methylpropan-2-ol] displayed an IC50 of 26.5 nM.
In the case of `COc1cccc2c1nc(N)n1nc(CNC(=O)c3ccc(C(C)(O)C(F)(F)F)cc3)nc21` (single isomer, unassigned) [Example 2.7A, (S or R)-N-((5-amino-7-methoxy-[1,2,4]triazolo[1,5-c]quinazolin-2-yl)methyl)-4-(1,1,1-trifluoro-2-hydroxypropan-2-yl)benzamide], the IC50 came out at 0.3 nM.
Compound `COc1cccc2c1nc(N)n1nc(CCNc3cnn(C)c3)nc21` [Example 23.2, 7-methoxy-2-(2-((1-methyl-1H-pyrazol-4-yl)amino)ethyl)-[1,2,4]triazolo[1,5-c]quinazolin-5-amine] returned an IC50 of 4.2 nM.
